Target: T1, HtpGMtb (Mycobacterium tuberculosis, UniProt P9WMJ7)
T1 construct: gene htpG; full-length wild type, recombinant in E. coli BL21(DE3), Ni-NTA and SEC, further ion exchange to remove nucleic acid; homodimer
Assay: biochemical
Format: binding

T1 sequence (P9WMJ7 whole entry): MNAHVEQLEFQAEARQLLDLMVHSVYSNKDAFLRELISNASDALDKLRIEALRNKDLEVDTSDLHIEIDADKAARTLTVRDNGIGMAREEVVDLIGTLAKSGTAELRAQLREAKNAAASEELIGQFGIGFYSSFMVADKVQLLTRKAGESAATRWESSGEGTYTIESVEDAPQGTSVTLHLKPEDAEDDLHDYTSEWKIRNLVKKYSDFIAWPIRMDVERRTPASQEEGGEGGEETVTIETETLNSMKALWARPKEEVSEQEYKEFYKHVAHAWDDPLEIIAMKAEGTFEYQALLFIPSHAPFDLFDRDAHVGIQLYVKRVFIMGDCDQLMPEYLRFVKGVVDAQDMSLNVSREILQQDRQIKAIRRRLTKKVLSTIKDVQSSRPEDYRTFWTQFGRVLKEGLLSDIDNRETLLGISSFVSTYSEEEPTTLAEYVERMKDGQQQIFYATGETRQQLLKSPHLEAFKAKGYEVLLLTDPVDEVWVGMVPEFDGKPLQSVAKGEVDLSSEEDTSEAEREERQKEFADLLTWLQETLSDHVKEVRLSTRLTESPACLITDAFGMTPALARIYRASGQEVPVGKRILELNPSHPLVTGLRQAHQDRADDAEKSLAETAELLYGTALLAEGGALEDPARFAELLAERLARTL

SMILES | Kd [µM]
Nc1ncnc2c1ncn2[C@@H]1O[C@H](COP(=O)(O)OP(=O)(O)O)[C@@H](O)[C@H]1O [ADP] | 34
Nc1ncnc2c1ncn2[C@@H]1O[C@H](COP(=O)(O)OP(=O)(O)NP(=O)(O)O)[C@@H](O)[C@H]1O [AMP-PNP] | 45.4

Reference: paper PMC9403545, “Structure based design of effective HtpG-derived vaccine antigens against M. tuberculosis” (Frontiers in Molecular Biosciences, 2022)
